From patent US10596127B2, “Composition for reducing the frequency of urination, method of making and use thereof” (WELLESLEY PHARMACEUTICALS, LLC, priority 2013, dated 2020) come the findings set out here.

In experiment [1] the test system is COX2 expression by normal human bladder smooth muscle cells. Nature of the experiment: Cell-based ELISA of total COX2 in normal human bladder smooth muscle cells. Conditions: for Total COX2 levels (Normalized RFUs) subject 1: mean of duplicates; for effect on the effect of carbachol and LPS on COX2 levels: LPS-induced responses: analgesic at either 5 μM or 50 μM. The procedure: COX2 responses were analyzed by a Cell-Based ELISA using Human/mouse total COX2 immunoassay (R&D Systems), following the instructions of the manufacturer. Briefly, after cells fixation and permeabilization, a mouse anti-total COX2 and a rabbit anti-total GAPDH were added to the wells of the clear-bottom black 96-well cell culture microculture plates. After incubation and washes, an HRP-conjugated anti-mouse IgG and an AP-conjugated anti-rabbit IgG were added to the wells. Following another incubation and set of washes, the HRP- and AP-fluorogenic substrates were added. Finally, a Victor® V multilabel plate reader (PerkinElmer) was used to read the fluorescence emitted at 600 nm (COX2 fluorescence) and 450 nm (GAPDH fluorescence). Results are expressed as relative levels of total COX2 as determined by relative fluorescence unit (RFUs) and normalized to the housekeeping protein GAPDH.
(§1) Normal human bladder smooth muscle cells were isolated by enzymatic digestion from macroscopically normal pieces of human bladder. Cells were expended in vitro by culture at 37° C. in a 5% CO2 atmosphere in RPMI 1640 supplemented with 10% fetal bovine serum, 15 mM HEPES, 2 mM L-glutamine, 100 U/ml penicillin, and […] of streptomycin and passage once a week by treatment with trypsin to detach cells followed by reseeding in a new culture flask. The first week of culture, the culture medium was supplemented with 0.5 ng/ml epidermal growth factor, 2 ng/ml fibroblast growth factor, and 5 μg/ml insulin.
(§2) […] When no other effectors were added to the cells, 50 μl of RPMI 1640 without fetal bovine serum were added to the wells to adjust the final volume to 200 μl.
(§3) After 24 hours of culture, 150 μl of culture supernatants were collected, spun down for 2 min at 8,000 rpm at 4° C. to remove cells and debris and stored at −70° C. for analysis of Prostaglandin E2 (PGE2) responses by ELISA. Cells were fixed, permeabilized and blocked for detection of COX2 using a fluorogenic substrate. In selected experiment cells were stimulated 12 hours in vitro for analysis of COX2, PGE2 and cytokine responses.
(§4) COX2 and PGE2 responses were analyzed as described in Example 3. Cytokine responses were analyzed as described in Example 2.

In experiment [2] the test system is TNFα secretion by normal human bladder smooth muscle cells. Nature of the experiment: TNFα ELISA of normal human bladder smooth muscle cell supernatants. It is filed as cell-based. Conditions: for TNFα (pg/ml) Subject 2: LPS alone 4107; for TNFα (pg/ml) Subject 1: LPS alone 5725, mean of duplicates.
The subject of experiment [3] is PGE2 secretion by normal human bladder smooth muscle cells. Nature of the experiment: PGE2 ELISA of normal human bladder smooth muscle cell supernatants. It counts as cell-based. Conditions: for PGE2 levels (pg/ml) Subject 1: mean of duplicates; for effect on the LPS-induced PGE2 responses: analgesic at either 5 μM or 50 μM. The procedure:
Prostaglandin E2 responses were analyzed by a sequential competitive ELISA (R&D Systems). More specifically, culture supernatants or PGE2 standards were added to the wells of a 96-well polystyrene microplate coated with a goat anti-mouse polyclonal antibody. After one hour incubation on a microplate shaker, an HRP-conjugated PGE2 was added and plates incubated for an additional two hours at room temperature. The plates were then washed and HRP substrate solution added to each well. The color was allowed to develop for 30 min and the reaction stopped by addition sulfuric acid before reading the plate at 450 nm with wavelength correction at 570 nm. Results are expressed as mean pg/ml of PGE2.
as §1, §2, §3, §4

The subject of experiment [4] is PGE2 secretion by mouse bladder cells. Nature of the experiment: PGE2 ELISA of mouse bladder cell culture supernatants. It counts as cell-based. Conditions: for PGE2 levels: LPS alone 925 ± 55, unstimulated <20.5; for effect on the effect of LPS on PGE2 secretion: LPS (1 μg/ml), analgesic 5 or 50 μM. The procedure:
Bladder cells were removed from euthanized animals C57BL/6 mice (8-12 weeks old) and cells were isolated by enzymatic digestion followed by purification on a Percoll gradient. […] Bladder slurries were enzymatically digested for 30 minutes at 37° C. Undigested fragments were further dispersed through a cell-trainer. The cell suspension was pelleted and added to a discontinue 20%, 40% and 75% Percoll gradient for purification on mononuclear cells. Each experiment used 50-60 bladders. […] Cells were cultured at 37° C. in a 5% CO2 atmosphere. Bladder cells were treated with analgesic solutions (50 well) either alone or together with carbachol (10-Molar, 50 μl/well), as an example of non-inflammatory stimuli, or lipopolysaccharide (LPS) of Salmonella typhimurium (1 μg/ml, 50 μl/well), as an example of […] stimuli. […] Cells were fixed, permeabilized and blocked for detection of Cyclooxygenase-2 (COX2) using a fluorogenic substrate. In selected experiment cells were stimulated 12 hours in vitro for analysis of COX2 responses […] More specifically, culture supernatants or PGE2 standards were added to the wells of a 96-well polystyrene microplate coated with a goat anti-mouse polyclonal antibody. After one hour incubation on a microplate shaker, an HRP-conjugated PGE2 was added and plates incubated for an additional two hours at room temperature. The plates were then washed and HRP substrate solution added to each well. The color was allowed to develop for 30 min and the reaction stopped by addition sulfuric acid before reading the plate at 450 nm with wavelength correction at 570 nm. Results are expressed as mean pg/ml of PGE2.
On the technique in general: ELISA stands for enzyme-linked immunosorbent assay.

The mark [5] stands for this setting: Carbachol 10^−3 M plus analgesic 50 μM, carbachol alone 437, unstimulated 230.
Setting [6] is: Carbachol 10^−3 M plus analgesic 50 μM, carbachol alone 462, unstimulated 199.
The mark [7] stands for this setting: LPS (10 μg/ml) plus analgesic 5 μM, LPS alone 633, unstimulated 199.
The mark [8] stands for this setting: LPS (10 μg/ml) plus analgesic 5 μM, LPS alone 672, unstimulated 230.
The mark [9] stands for this setting: LPS (10 μg/ml) plus analgesic 50 μM, LPS alone 633, unstimulated 199.
Setting [10] is: LPS (10 μg/ml) plus analgesic 50 μM, LPS alone 672, unstimulated 230.
The mark [11] stands for this setting: LPS (10 μg/ml) plus analgesic 5 μM.
[12] abbreviates: LPS (10 μg/ml) plus analgesic 50 μM.
The mark [13] stands for this setting: Carbachol 10^−3 M plus analgesic 50 μM, carbachol alone 104, unstimulated <20.5.
Where [14] appears, read: Carbachol 10^−3 M plus analgesic 50 μM, carbachol alone 129, unstimulated <20.5.
The mark [15] stands for this setting: LPS (10 μg/ml) plus analgesic 5 μM, LPS alone 998.
[16] abbreviates: LPS (10 μg/ml) plus analgesic 5 μM, LPS alone 1125.
[17] abbreviates: LPS (10 μg/ml) plus analgesic 50 μM, LPS alone 998.
Setting [18] is: LPS (10 μg/ml) plus analgesic 50 μM, LPS alone 1125.
The mark [19] stands for this setting: LPS (1 μg/ml) plus analgesic 5 μM.
Setting [20] is: LPS (1 μg/ml) plus analgesic 50 μM.

SMILES strings stand for the structures.

Regarding `COc1ccc2cc([C@H](C)C(=O)O)ccc2c1` [Naproxen], the “Total COX2 levels (Normalized RFUs) subject 1” value in experiment [1] (setting [5]) is reported as 296 Normalized RFUs; in experiment [1] (setting [8]), 458 Normalized RFUs; in experiment [1] (setting [10]), 409 Normalized RFUs. Moreover, the “Total COX2 levels (Normalized RFUs) subject 2” value in experiment [1] (setting [6]) is on record as 354 Normalized RFUs; in experiment [1] (setting [7]), 501 Normalized RFUs; in experiment [1] (setting [9]), 458 Normalized RFUs. Besides, in experiment [1], the “effect on the effect of carbachol and LPS on COX2 levels” value (“effect on the effect … on COX2 levels” below) is “suppress”. Also, the “TNFα (pg/ml) Subject 2” value came to 2215 pg/mL in experiment [2] (setting [11]) and 2192 pg/mL in experiment [2] (setting [12]). For the same molecule, the “TNFα (pg/ml) Subject 1” value was 2591 pg/mL in experiment [2] (setting [11]) and 2427 pg/mL in experiment [2] (setting [12]). For the same molecule, the “PGE2 levels (pg/ml) Subject 2” value in experiment [3] (setting [13]) is 66 pg/mL; in experiment [3] (setting [15]), 506 pg/mL; in experiment [3] (setting [17]), 523 pg/mL. Besides, the “PGE2 levels (pg/ml) Subject 1” value was determined as 77 pg/mL in experiment [3] (setting [14]), 859 pg/mL in experiment [3] (setting [16]) and 819 pg/mL in experiment [3] (setting [18]). For the same molecule, the “effect on the LPS-induced PGE2 responses” value in experiment [3] is listed as “suppress”. For the same molecule, the “PGE2 levels” value in experiment [4] (setting [19]) was determined as 597 ± 19 pg/mL; in experiment [4] (setting [20]) it was 588 ± 37 pg/mL. Besides, in experiment [4], the “effect on the effect of LPS on PGE2 secretion” value (shortened to “effect on the effect of LPS”) is recorded as “suppressed”.
Turning to `CC(C)Cc1ccc(C(C)C(=O)O)cc1` (centres unmarked) [Ibuprofen, ibuprofen], the figures for the “TNFα (pg/ml) Subject 2” value in experiment [2] (setting [11]) and in experiment [2] (setting [12]) were 2288 pg/mL and 1997 pg/mL, respectively. Besides, the “TNFα (pg/ml) Subject 1” value in experiment [2] (setting [11]) was 2733 pg/mL; in experiment [2] (setting [12]), 2603 pg/mL. For the same molecule, the “PGE2 levels (pg/ml) Subject 2” value in experiment [3] (setting [13]) worked out at 73 pg/mL; in experiment [3] (setting [15]), 527 pg/mL; in experiment [3] (setting [17]), 501 pg/mL. Also, the “PGE2 levels (pg/ml) Subject 1” value in experiment [3] (setting [14]) came to 84 pg/mL; in experiment [3] (setting [16]), 824 pg/mL; in experiment [3] (setting [18]), 821 pg/mL. Moreover, the “effect on the LPS-induced PGE2 responses” value in experiment [3] is listed as “suppress”. In addition, the “PGE2 levels” value was determined as 593 ± 46 pg/mL in experiment [4] (setting [19]) and 568 ± 32 pg/mL in experiment [4] (setting [20]). The “effect on the effect of LPS” value in experiment [4] is “suppressed”.
Consider `CC(=O)Oc1ccccc1C(=O)O` [Aspirin, Acetylsalicylic acid], for which the “Total COX2 levels (Normalized RFUs) subject 1” value in experiment [1] (setting [5]) is reported as 312 Normalized RFUs; in experiment [1] (setting [8]) it was 472 Normalized RFUs; in experiment [1] (setting [10]) it was 413 Normalized RFUs. For the same molecule, the results for the “Total COX2 levels (Normalized RFUs) subject 2” value in experiment [1] (setting [6]), in experiment [1] (setting [7]) and in experiment [1] (setting [9]) were 297 Normalized RFUs, 491 Normalized RFUs and 484 Normalized RFUs, respectively. Moreover, the “effect on the effect … on COX2 levels” value in experiment [1] is reported as “suppress”. Besides, the results for the “TNFα (pg/ml) Subject 2” value in experiment [2] (setting [11]) and in experiment [2] (setting [12]) were 2187 pg/mL and 2089 pg/mL, respectively. Further, the “TNFα (pg/ml) Subject 1” value amounted to 2479 pg/mL in experiment [2] (setting [11]) and 2266 pg/mL in experiment [2] (setting [12]). For the same molecule, the “PGE2 levels (pg/ml) Subject 2” value was 59 pg/mL in experiment [3] (setting [13]), 598 pg/mL in experiment [3] (setting [15]) and 534 pg/mL in experiment [3] (setting [17]). The “PGE2 levels (pg/ml) Subject 1” value is 89 pg/mL in experiment [3] (setting [14]), 838 pg/mL in experiment [3] (setting [16]) and 812 pg/mL in experiment [3] (setting [18]). For the same molecule, the “effect on the LPS-induced PGE2 responses” value in experiment [3] is given as “suppress”. Also, the “PGE2 levels” value amounted to 588 ± 21 pg/mL in experiment [4] (setting [19]) and 571 ± 53 pg/mL in experiment [4] (setting [20]). Further, the “effect on the effect of LPS” value in experiment [4] is recorded as “suppressed”.
With `CC(=O)Nc1ccc(O)cc1` [Acetaminophen, N-acetyl-para-aminophenol], the “Total COX2 levels (Normalized RFUs) subject 1” value in experiment [1] (setting [5]) turned out to be 298 Normalized RFUs; in experiment [1] (setting [8]), 428 Normalized RFUs; in experiment [1] (setting [10]), 399 Normalized RFUs. Also, the “Total COX2 levels (Normalized RFUs) subject 2” value in experiment [1] (setting [6]) came out at 310 Normalized RFUs; in experiment [1] (setting [7]), 457 Normalized RFUs; in experiment [1] (setting [9]), 509 Normalized RFUs. In addition, in experiment [1], the “effect on the effect … on COX2 levels” value is reported as “suppress”. Further, the “TNFα (pg/ml) Subject 2” value in experiment [2] (setting [11]) amounted to 2267 pg/mL; in experiment [2] (setting [12]) it was 2056 pg/mL. Besides, the “TNFα (pg/ml) Subject 1” value turned out to be 2338 pg/mL in experiment [2] (setting [11]) and 2184 pg/mL in experiment [2] (setting [12]). For the same molecule, the results for the “PGE2 levels (pg/ml) Subject 2” value in experiment [3] (setting [13]), in experiment [3] (setting [15]) and in experiment [3] (setting [17]) were 62 pg/mL, 542 pg/mL and 540 pg/mL, respectively. Besides, the figures for the “PGE2 levels (pg/ml) Subject 1” value in experiment [3] (setting [14]), in experiment [3] (setting [16]) and in experiment [3] (setting [18]) were 76 pg/mL, 817 pg/mL and 803 pg/mL, respectively. In addition, the “effect on the LPS-induced PGE2 responses” value in experiment [3] was “suppress”. The figures for the “PGE2 levels” value in experiment [4] (setting [19]) and in experiment [4] (setting [20]) were 619 ± 32 pg/mL and 600 ± 45 pg/mL, respectively. Besides, the “effect on the effect of LPS” value in experiment [4] is “suppressed”.
